Test results from publication PMC10227015, “From a drug repositioning to a structure-based drug design approach to tackle acute lymphoblastic leukemia” (Nature Communications, 2023).
“And” between values parts separate entries of the source, which are not always exact repeats. Identical values can stand only once.

What was measured:
CCRF-CEM cells [1] = test: γH2A.X measurements (DNA damage); format: cell-based, human; conditions: 24 h, dT 200 µM, others 1 µM, presence of dC
Procedure: (§1) CCRF-CEM cells were seeded at 100,000 cells/ml, and treated with DMSO (0.01%) as vehicle control or dT (200 μΜ), and/or dC, OR0642, DI-87 and DI-39 (1 μΜ). For cell cycle analysis, cells were harvested after 24 h, fixed in 4% paraformaldehyde, permeabilized with 0.15% Triton X100, and DNA content was determined using 1 μg/ml DAPI. For apoptosis assay, cells were harvested after 72 h and cell death was assayed using Annexin V-APC and 7AAD following manufacturer’s instructions (Biolegend, 640930). For γH2A.X measurements, cells were harvested after 24 h, fixed in 4% paraformaldehyde and permeabilized with 0.15% Triton X100. Then, cells were stained with the phospho-H2AX (pS139 H2AX, Biolegend, 613402, 1:1000) specific primary antibody, Alexa-Fluor 488 secondary antibody (ThermoFisher, A21202, 1:1000) and DAPI. All acquisitions were performed on a BD Fortessa cytometer, and analysis of flow cytometry data was performed using FlowJo™ Software 10.7.1 (BD Life Sciences). Each experiment was performed three times. Figures exemplifying the gating strategy are provided in the Supplementary Information (Supplementary Figs. 29–31).
Cells were seeded, treated and stained as described for flow cytometry analysis, and then spread on a microscope slide using cytospin. Slides were mounted with […] mounting medium with DAPI (Vector Laboratories). […]

CCRF-CEM cells [2] = test: Annexin V apoptosis assay; format: cell-based, human; conditions: 72 h, dT 200 µM, others 1 µM, presence of dC
Procedure: as §1

[3] = test system: human CCRF-CEM T-ALL cell line expressing luciferase; test: Systemic leukemia model: NSG mice inoculated intravenously with luciferase CCRF-CEM cells; format: in vivo, mouse; design: hCD45+ populations determined by flux cytometry at day 21 of CCRF-CEM bearing mice / Whole body radiance of CCRF-CEM bearing mice: unit not given here; conditions: for effect on leukemic progression: dT 1.5 g/kg, OR0642 40 mg/kg IP; for Whole body radiance of CCRF-CEM bearing mice / hCD45+ populations determined by flux cytometry at day 21 of CCRF-CEM bearing mice / Whole body radiance at day 21 of CCRF-CEM bearing mice / Survival days of CCRF-CEM bearing mice: dT 1,5 g/Kg, OR0642 40 mg/Kg; for hCD45+ populations determined by flux cytometry at day 21 of CCRF-CEM bearing mice: day 21, blood; for Whole body radiance at day 21 of CCRF-CEM bearing mice: day 21, individual mice (Figure 4d);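 as to hCD45+ populations determined by flux cytometry at day 21 of CCRF-CEM bearing mice: Bead-counted human ALL blasts per volume of peripheral blood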
dCK-C3S-S74E = test: Isothermal titration calorimetry (ITC); format: binding, human; conditions: 25 °C
Sequence of dCK-C3S-S74E (P27707 whole entry S74E, form open): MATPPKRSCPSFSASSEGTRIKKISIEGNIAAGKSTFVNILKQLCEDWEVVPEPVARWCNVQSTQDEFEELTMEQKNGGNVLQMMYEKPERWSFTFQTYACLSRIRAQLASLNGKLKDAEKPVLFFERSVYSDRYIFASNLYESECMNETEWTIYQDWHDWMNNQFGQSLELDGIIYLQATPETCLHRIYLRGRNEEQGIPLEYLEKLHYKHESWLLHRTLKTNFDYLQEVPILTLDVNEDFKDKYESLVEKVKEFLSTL
Text: BL21 pRIL Escherichia coli cells were transformed with dCK-plasmids (dCK-C4S-S74E (for crystallization assays) and dCK-C3S-S74E (for TSA, enzymatic and ITC assays)). Protein dCK-C4S-S74E used for crystallization assays contained four mutations in order to generate better quality crystals (four solvent-exposed cysteine residues were mutated to serine; C9S, C45S, C59S and C146S). Protein dCK-C3S-S74E used for other assays contained only three mutated cysteines. The S74E mutation mimics the phosphorylated state of this serine, which favors the open conformation of the enzyme, making it competent for nucleoside binding[45] to evaluate the binding affinity with compounds. E. coli cells were grown in LB media containing 100 μg/ml ampicillin and 34 μg/ml chloramphenicol at 18 °C for 20 h after induction with 1 mM IPTG.
For binding assays (TSA, ITC and crystallography) cells were re-suspended in 50 mM TRIS, pH 8, 500 mM NaCl, 30 mM imidazole and 10% glycerol buffer and one EDTA free anti-protease tablet was added (Roche). After sonication and centrifugation (30,000 × g), the supernatant was loaded on a 5 ml HisTrap FF column (GE healthcare) pre-equilibrated with resuspension buffer. Protein was then eluted by resuspension buffer containing 500 mM imidazole. Protein eluted fractions were mixed and concentrated. […]

human c-KIT = molecular target: T1, human c-KIT (Homo sapiens, UniProt P10721); test: c-KIT cellular assay: Ba/F3 proliferation with SCF, without IL3; format: cell-based; conditions: for Cell proliferation of the IL-3 dependent Ba/F3 cell line Mean (% prolif): SCF, no IL3, 48 h; for IC50 ratio of IL3/SCF (unspecific/c-KIT): Ba/F3 expressing WT human c-KIT, 72 h
T1 construct: expressed in transfected cells; host or cells: Ba/F3 (murine IL3-dependent pro-B cell line)
T1 sequence (P10721 26-976): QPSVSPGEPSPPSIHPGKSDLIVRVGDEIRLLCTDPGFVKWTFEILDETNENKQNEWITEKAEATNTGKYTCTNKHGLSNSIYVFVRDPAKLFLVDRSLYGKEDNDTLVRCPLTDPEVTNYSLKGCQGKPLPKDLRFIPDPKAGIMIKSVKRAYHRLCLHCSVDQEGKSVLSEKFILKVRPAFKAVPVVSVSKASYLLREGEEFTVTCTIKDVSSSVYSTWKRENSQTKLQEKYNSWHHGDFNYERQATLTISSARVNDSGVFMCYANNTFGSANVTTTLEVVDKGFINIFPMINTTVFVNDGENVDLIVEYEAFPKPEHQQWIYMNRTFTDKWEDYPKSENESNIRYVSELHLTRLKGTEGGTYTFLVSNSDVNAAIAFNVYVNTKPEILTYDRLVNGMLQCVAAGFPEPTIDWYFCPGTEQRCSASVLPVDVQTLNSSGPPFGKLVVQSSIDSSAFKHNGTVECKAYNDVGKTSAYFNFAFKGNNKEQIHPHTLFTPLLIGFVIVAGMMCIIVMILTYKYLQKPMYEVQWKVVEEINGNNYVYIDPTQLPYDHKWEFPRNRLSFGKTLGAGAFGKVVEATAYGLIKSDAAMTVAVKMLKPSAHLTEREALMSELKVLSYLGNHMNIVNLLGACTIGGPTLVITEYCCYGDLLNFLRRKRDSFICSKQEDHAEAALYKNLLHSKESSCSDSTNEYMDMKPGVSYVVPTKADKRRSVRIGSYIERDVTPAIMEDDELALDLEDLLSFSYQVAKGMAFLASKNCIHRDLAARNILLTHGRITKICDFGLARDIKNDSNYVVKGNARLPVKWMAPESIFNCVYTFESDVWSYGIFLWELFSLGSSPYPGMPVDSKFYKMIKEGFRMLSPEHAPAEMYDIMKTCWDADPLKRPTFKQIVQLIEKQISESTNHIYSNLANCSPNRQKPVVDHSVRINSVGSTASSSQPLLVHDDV
Procedure: The generation of Ba/F3 cells expressing wild-type human c-KIT has been previously described by us[55],[56]. For the assay of Ba/F3 cell proliferation, plates were seeded with a total of 10,000 cells per well. Cells were supplemented, or not, with either 0.1% IL3 or 250 ng/ml murine SCF. IL3 was obtained from conditioned medium from X63-omIL-3 cells (obtained from Fritz Melchers laboratory (Berlin, Germany)) and murine SCF, which activates c-KIT, was purified from the conditioned medium of SCF-producing CHO cells. Cells were supplemented with compounds at varying concentrations (final 0.1% DMSO). […] The amount of reduced dye formed by metabolically active cells was quantified by its fluorescence measured at 560 nm (excitation) and 590 nm (emission) in a microplate reader (FLUOstar Omega, BMG Labtech). A blank well without cells was used as a background control. Each experiment was performed at least three times (with technical triplicates) and data are presented as the mean ± SD.

CCCN(c1nc(-c2nc(N)cc(N)n2)cs1)c1cc(-c2ccc(S(=O)(=O)N3CCN(C)CC3)cc2C(F)(F)F)ccc1C [OR0642]
DNA damage, γH2A.X (CCRF-CEM cells [1]): neither dT nor OR0642 alone induced DNA damage or apoptosis
apoptosis, Annexin V staining (CCRF-CEM cells [2]): neither dT nor OR0642 alone induced DNA damage or apoptosis
effect on leukemic progression [3]: did not show any antiproliferative effect
Whole body radiance of CCRF-CEM bearing mice ([3]; day 0 (before treatment), individual mice, 40 mg/kg): 1948 and 1585 and 1112 and 1289 and 1143 and 2120 and 1563 and 1766 and 1453
Whole body radiance of CCRF-CEM bearing mice ([3]; day 7, individual mice, 40 mg/kg): 5130 and 1470 and 1540 and 826 and 1990 and 2090 and 4750 and 1530 and 2610
Whole body radiance of CCRF-CEM bearing mice ([3]; day 14, individual mice, 40 mg/kg): 392000 and 24500 and 395000 and 489000 and 137000 and 327000 and 469000 and 291000 and 53900
hCD45+ populations determined by flux cytometry at day 21 of CCRF-CEM bearing mice ([3]; individual mice, 40 mg/kg): 216.1 and 194.2 and 86.4 and 80.1 and 74.9 and 211.8 and 120.7 and 113.3 and 112.2
Whole body radiance of CCRF-CEM bearing mice ([3]; day 21, individual mice (Figure 4b), 40 mg/kg): 2070000 and 4600000 and 1490000 and 6950000 and 1760000 and 5460000 and 5470000 and 5010000 and 3010000
Whole body radiance at day 21 of CCRF-CEM bearing mice ([3]; 40 mg/kg): 2180000 and 4850000 and 1550000 and 7340000 and 1840000 and 5680000 and 5590000 and 4590000 and 3150000
Survival days of CCRF-CEM bearing mice ([3]; individual mice, 40 mg/kg): 25 days and 26 days and 27 days

Cc1ccc(NC(=O)c2ccc(CN3CCN(C)CC3)cc2)cc1Nc1nc(-c2nccc(N)n2)cs1 [dCKi1]
Kd (dCK-C3S-S74E): 128 nM
Cell proliferation of the IL-3 dependent Ba/F3 cell line Mean (% prolif) (human c-KIT; 3.7 nM): 98.5%
Cell proliferation of the IL-3 dependent Ba/F3 cell line Mean (% prolif) (human c-KIT; 11 nM): 97.1%
Cell proliferation of the IL-3 dependent Ba/F3 cell line Mean (% prolif) (human c-KIT; 33 nM): 99.7%
Cell proliferation of the IL-3 dependent Ba/F3 cell line Mean (% prolif) (human c-KIT; 99 nM): 87.3%
Cell proliferation of the IL-3 dependent Ba/F3 cell line Mean (% prolif) (human c-KIT; 296 nM): 83.7%
Cell proliferation of the IL-3 dependent Ba/F3 cell line Mean (% prolif) (human c-KIT; 889 nM): 66.8%
Cell proliferation of the IL-3 dependent Ba/F3 cell line Mean (% prolif) (human c-KIT; 2667 nM): 24.0%
Cell proliferation of the IL-3 dependent Ba/F3 cell line Mean (% prolif) (human c-KIT; 8000 nM): 0.4%
Cell proliferation of the IL-3 dependent Ba/F3 cell line Mean (% prolif) (human c-KIT; 24000 nM): 0.35%
IC50 ratio of IL3/SCF (unspecific/c-KIT) (human c-KIT): 7.6

Cc1ccc(NC(=O)c2ccc(CN3CCN(C)CC3)cc2)cc1Nc1nc(-c2nc(N)cc(N)n2)cs1 [dCKi2, N-(3-((4-(4,6-diaminopyrimidin-2-yl)thiazol-2-yl)amino)-4-methylphenyl)-4-((4-methylpiperazin-1-yl)methyl)benzamide]
Kd (dCK-C3S-S74E): 37 nM
Cell proliferation of the IL-3 dependent Ba/F3 cell line Mean (% prolif) (human c-KIT; 3.7 nM): 97.2%
Cell proliferation of the IL-3 dependent Ba/F3 cell line Mean (% prolif) (human c-KIT; 11 nM): 96.0%
Cell proliferation of the IL-3 dependent Ba/F3 cell line Mean (% prolif) (human c-KIT; 33 nM): 97.1%
Cell proliferation of the IL-3 dependent Ba/F3 cell line Mean (% prolif) (human c-KIT; 99 nM): 91.8%
Cell proliferation of the IL-3 dependent Ba/F3 cell line Mean (% prolif) (human c-KIT; 296 nM): 94.5%
Cell proliferation of the IL-3 dependent Ba/F3 cell line Mean (% prolif) (human c-KIT; 889 nM): 86.6%
Cell proliferation of the IL-3 dependent Ba/F3 cell line Mean (% prolif) (human c-KIT; 2667 nM): 76.3%
Cell proliferation of the IL-3 dependent Ba/F3 cell line Mean (% prolif) (human c-KIT; 8000 nM): 48.8%
Cell proliferation of the IL-3 dependent Ba/F3 cell line Mean (% prolif) (human c-KIT; 24000 nM): 6.7%
IC50 ratio of IL3/SCF (unspecific/c-KIT) (human c-KIT): 2.7

Cc1cn([C@H]2C[C@H](O)[C@@H](CO)O2)c(=O)[nH]c1=O [dT, thymidine]
DNA damage, γH2A.X (CCRF-CEM cells [1]): neither dT nor OR0642 alone induced DNA damage or apoptosis
apoptosis, Annexin V staining (CCRF-CEM cells [2]): neither dT nor OR0642 alone induced DNA damage or apoptosis
effect on leukemic progression [3]: scarcely reduced leukemic progression
Whole body radiance of CCRF-CEM bearing mice ([3]; day 0 (before treatment), individual mice): 2430 and 1179 and 1269 and 2044 and 1251 and 1181 and 1090
Whole body radiance of CCRF-CEM bearing mice ([3]; day 7, individual mice): 1580 and 1140 and 2350 and 2150 and 1440 and 1960 and 2210
Whole body radiance of CCRF-CEM bearing mice ([3]; day 14, individual mice): 94100 and 37700 and 196000 and 167000 and 8080 and 182000 and 106000
hCD45+ populations determined by flux cytometry at day 21 of CCRF-CEM bearing mice ([3]; individual mice): 24.2 and 22.7 and 31.6 and 8.9 and 23.4 and 14.2
Whole body radiance of CCRF-CEM bearing mice ([3]; day 21, individual mice (Figure 4b)): 1150000 and 1620000 and 2390000 and 1910000 and 1880000 and 520000 and 953000
Whole body radiance at day 21 of CCRF-CEM bearing mice [3]: 1720000 and 2530000 and 2010000 and 1980000 and 545000 and 1000000 and 1210000
Survival days of CCRF-CEM bearing mice ([3]; individual mice): 28 days and 29 days and 30 days
